Measurements published in patent publication EP0359821A1, “METHOD OF STERILIZING PLANT ANTHERS” (priority 1988, dated 1989).

Legend:
Tritikale Sorte PRAG I09 = assay: Field trial of gametocidal activity, triticale; type: in vivo; details: 1% aqueous emulsion, 12 kg/ha; for Prozentsatz des Ansetzens bei freier Bestäubung: control = 100
From the text: (§1) Bei Weizen und Tritikale werden Einzelisolatoren verwendet.
Pflanzen von Tritikale Sorte PRAG I09 werden in der V. und VI.
Der Verbrauch an Sterilisationsmittel beträgt 12 kg/ha.

[1] = test system: Hirse Sorte Mironovskoe 94; assay: Field trial of gametocidal activity, millet Mironovskoe 94; type: in vivo; details: 1% aqueous emulsion, 10 kg/ha; for response vs control in vivo at 10000 g/ha: control = 100, read-out: Prozentsatz des Ansetzens bei freier Bestäubung
[2] = test system: Diploider Roggen Sorte Gibrid 340/65; assay: Field trial of gametocidal activity, diploid rye Gibrid 340/65; details: Gibrid 340/65 (text: 312/65), 1% aqueous emulsion, 10 kg/ha; for Anzahl von Körnern der Ähre bei freier Bestäubung / Anzahl von Körnern der Ähre im Isolator / Prozentsatz der Sterilität: V. and VI. periods; for Prozentsatz des Ansetzens bei freier Bestäubung: control = 100
Sonnenblume Linie VK 119 = assay: Field trial of pollen sterilisation, sunflower line VK 119; details: 0,2% aqueous emulsion, 1,2 kg/ha
[3] = test system: Tetraploider Roggen Sorte Belta; assay: Field trial of gametocidal activity, tetraploid rye Belta; type: in vivo; details: 1% aqueous emulsion, 10 kg/ha
in vivo = details: mouse
[4] = test system: Sonnenblume Sorte Peredovik; assay: Field trial of pollen sterilisation, sunflower Peredovik; type: in vivo; details: 0,2% aqueous emulsion, 1,2 kg/ke (so in the source); for Ansetzen von Achänen bei freier Bestäubung in % / Ansetzen von Achänen im Isolator bei der Bestäubung mit dem Pollengemisch in %: V. or VI. period
From the text: Pflanzen der Sonnenblume Sorte Peredovik werden in der V. oder VI.
Der Verbrauch an Sterilisationsmittel beträgt 1,2 kg/ke.

[5] = test system: Diploider Roggen Sorte Chulpan; assay: Field trial of gametocidal activity, diploid rye Chulpan; type: in vivo; details: single compounds, 1% aqueous emulsion, 10 kg/ha; for pest or weed control at 10000 g/ha: read-out: Prozentsatz der Sterilität, Chulpan; for response vs control in vivo at 10000 g/ha: read-out: Prozentsatz des Ansetzens bei freier Bestäubung, Chulpan
From the text: as §1
Pflanzen von diploidem Roggen Sorte Chulpan werden in der V. oder VI.
Der Verbrauch an Sterilisationsmitteln beträgt 10 kg/ha.

[6] = test system: Hirse Sorte K-9693 Kormovoe 1; assay: Field trial of gametocidal activity, millet K-9693 Kormovoe 1; details: 1% aqueous emulsion, 10 kg/ha
[7] = test system: Sommerweizen Sorte Moskovskaya 35; assay: Field trial of gametocidal activity, spring wheat; type: in vivo, Weizen; details: 1% aqueous emulsion
[8] = test system: Diploider Roggen Sorte Kharkovskaya 55; assay: Field trial of gametocidal activity, diploid rye Kharkovskaya 55; details: 1% aqueous emulsion, 6 kg/ha
[9] = test system: Winterweizens Sorte Mironovskaya 808; assay: Field trial of gametocidal activity (anther sterilisation), winter wheat; type: in vivo, Weizen; details: 2% aqueous emulsion, 20 kg/ha
Roggen Sorte Voskhod 2 = assay: Field trial of gametocidal activity, diploid rye Voskhod 2; type: in vivo; details: 1% aqueous emulsion, 8 kg/ha; for Anzahl von Körnern der Ähre bei freier Bestäubung / Anzahl von Körnern der Ähre im Isolator / Prozentsatz der Sterilität: V. or VI. period; for Prozentsatz des Ansetzens bei freier Bestäubung: control = 100
[10] = V. or VI. period, read-out: Prozentsatz der Sterilität
[11] = control = 100, read-out: Prozentsatz des Ansetzens bei freier Bestäubung
[12] = V. or VI. period of organogenesis, read-out: Prozentsatz der Sterilität

Compound | Prozentsatz der Sterilität (Tritikale Sorte PRAG I09; V. and VI. period) | Prozentsatz des Ansetzens bei freier Bestäubung (Tritikale Sorte PRAG I09) | Anzahl von Körnern der Rispe bei freier Bestäubung ([1]; V. or VI. period) | Anzahl von Körnern der Rispe im Isolator ([1]; V. or VI. period) | response vs control in vivo at 10000 g/ha [1] | Anzahl von Körnern der Ähre bei freier Bestäubung [2] | Anzahl von Körnern der Ähre im Isolator [2] | Prozentsatz der Sterilität [2] | Prozentsatz des Ansetzens bei freier Bestäubung [2] | Ansetzen von Achänen bei freier Bestäubung in % (Sonnenblume Linie VK 119) | Ansetzen von Achänen im Isolator bei der Bestäubung mit dem Pollengemisch in % (Sonnenblume Linie VK 119) | Pollensterilität in % (Sonnenblume Linie VK 119) | LD50 (in vivo) | Pollensterilität in % [4] | Ansetzen von Achänen bei freier Bestäubung in % [4] | Ansetzen von Achänen im Isolator bei der Bestäubung mit dem Pollengemisch in % [4] | Anzahl von Körnern der Ähre bei freier Bestäubung ([5]; Chulpan, V. or VI. period) | Anzahl von Körnern der Ähre im Isolator ([5]; Chulpan, V. or VI. period) | pest or weed control at 10000 g/ha ([5]; V. or VI. period) | response vs control in vivo at 10000 g/ha ([5]; control = 100) | other results
CCC(CO)(CO)CO [Beispiel 39, Etriol] | 99,0% | 98,8% | 355,1 | 0,0 | 93.6% | 53,2 | 1,6 | 96,7% | 98,5% | – | – | – | – | – | – | – | – | – | – | – | Anzahl von Körnern der Ähre bei freier Bestäubung (Tritikale Sorte PRAG I09; V. and VI. period): 68,2; Anzahl von Körnern der Ähre im Isolator (Tritikale Sorte PRAG I09; V. and VI. period): 0,7; percent pollen sterility at 10000 g/ha [1, 10]: 100%
OCCCl [Beispiel 45, 2-Chloräthanol] | – | – | – | – | – | – | – | – | – | 83,5% | 0,0% | 100% | 580 mg/kg | 100% | 83,9% | 0,0% | 80,2 | 2,2 | 95.8% | 88.5% | Anzahl von Körnern der Ähre bei freier Bestäubung ([3]; V. or VI. period): 42,2; Anzahl von Körnern der Ähre im Isolator ([3]; V. or VI. period): 0,0; response vs control in vivo at 10000 g/ha [3, 11]: 95.3%; Anzahl von Körnern der Rispe bei freier Bestäubung ([6]; V. or VI. period): 130,5; Anzahl von Körnern der Rispe im Isolator ([6]; V. or VI. period): 0,0; Prozentsatz der Sterilität ([6]; V. or VI. period): 100%; Prozentsatz des Ansetzens bei freier Bestäubung ([6]; control = 100): 89,0%
NCCO.O=CO [Beispiel 48, Monoäthanolaminsalz der Ameisensäure] | 99,9% | 92,9% | 352,2 | 0,0 | – | – | – | – | – | – | – | – | – | – | – | – | 55,2 | 1,2 | – | – | Prozentsatz der Sterilität ([5]; Chulpan, V. or VI. period): 97,7%; Prozentsatz des Ansetzens bei freier Bestäubung ([5]; Chulpan, control = 100): 97,4%; Prozentsatz der Sterilität ([1]; V. or VI. period): 100%; Prozentsatz des Ansetzens bei freier Bestäubung ([1]; control = 100): 92,8%
O=C(COc1ccc(F)cc1)OCCCl [Beispiel I, β-Chloräthylester der 4-Fluorphenoxyessigsäure] | – | – | – | – | – | 45,6 | 0,0 | 100% | 84,4% | – | – | – | – | – | – | – | – | – | – | – | Anzahl von Körnern der Ähre bei freier Bestäubung ([7]; 10 kg/ha, V. period): 23,8; Anzahl von Körnern der Ähre im Isolator ([7]; 10 kg/ha, V. period): 0,4; percent sterility at 10000 g/ha ([7]; 10 kg/ha, V. period, read-out: Prozentsatz der Sterilität): 98.5%; response vs control in vivo [7, 11]: 86.5%; Anzahl von Körnern der Ähre bei freier Bestäubung ([8]; V. and VI. periods): 42,7; Anzahl von Körnern der Ähre im Isolator ([8]; V. and VI. periods): 0,0; Prozentsatz der Sterilität ([8]; V. and VI. periods): 100%; Prozentsatz des Ansetzens bei freier Bestäubung ([8]; control = 100): 94,7%; LD50 (in vivo; LD50, weisse Mäuse): 400 mg/kg; Anzahl von Körnern der Ähre bei freier Bestäubung ([9]; V. or VI. period of organogenesis): 30,4; percent sterility at 20000 g/ha [9, 12]: 99.8%
ClCC1CO1 (centres unmarked) [Beispiel II, 3-Chlor-1,2-epoxypropan] | – | – | 312,3 | 0,0 | 82.2% | – | – | – | – | 85,0% | 0,0% | 100% | 238 mg/kg | 100% | 82,3% | 0,0% | 48,9 | 0,0 | 100% | 86.2% | pest or weed control at 10000 g/ha [1, 10]: 100%; pest or weed control at 20000 g/ha [9, 12]: 99.8%; response vs control in vivo at 20000 g/ha [9, 11]: 77.5%; Anzahl von Körnern der Ähre bei freier Bestäubung (Roggen Sorte Voskhod 2): 51,7; Anzahl von Körnern der Ähre im Isolator (Roggen Sorte Voskhod 2): 0,6; Prozentsatz der Sterilität (Roggen Sorte Voskhod 2): 98,8%; Prozentsatz des Ansetzens bei freier Bestäubung (Roggen Sorte Voskhod 2): 94,7%
Äthanolaminsalz der Tetraphthalsäure [Beispiel 34] | – | – | – | – | – | – | – | – | – | – | – | – | – | – | – | – | – | – | – | – | Anzahl von Körnern der Ähre bei freier Bestäubung (Roggen Sorte Voskhod 2): 54,0; Anzahl von Körnern der Ähre im Isolator (Roggen Sorte Voskhod 2): 1,2; Prozentsatz der Sterilität (Roggen Sorte Voskhod 2): 97,6%; Prozentsatz des Ansetzens bei freier Bestäubung (Roggen Sorte Voskhod 2): 98,9%
